According to patent publication US20130324576A1, “THERAPEUTIC COMPOUNDS” (Takeda Pharmaceutical Company Limited, priority 2012, published 2013):

Target: T1, human PKR1 receptors (Homo sapiens, UniProt Q8TCW9)
T1 construct: expressed in transfected cells; host or cells: RBL2H3 cells (rat basophilic leukaemia line) expressing human PKR1
Assay: PKR1 antagonist assay: block of PK1-mediated intracellular calcium release (FLIPR Tetra, Calcium 5 dye)
Type: cell-based
Conditions: RBL2H3 cells expressing human PKR1; 10 min pre-incubation, stimulation with PK1 at EC80; calcium fluorescence
Method: Prokineticin receptor 1 (PKR1) antagonists may be functionally assessed by measurement of change in intracellular calcium levels induced by Gq mediated increase in inositol triphosphate (IP3) levels. The ability of a compound to block the intracellular release of calcium mediated by PK1 in RBL2H3 cells expressing human PKR1 receptors is determined as a measure of the compound's antagonist activity in vitro.
Approximately 10,000 cells per assay well are seeded in normal culture medium in a 384 well plate (Corning). Twenty-four hours after seeding, the cells are loaded with a calcium sensitive fluorescent dye by replacing the culture medium with assay buffer (1× Hanks buffered saline, 25 mM HEPES, 0.1% w/v fatty acid free BSA (bovine serum albumin), pH 7.4) containing 1 mM probenecid and 1× Calcium 5 Reagent (Molecular Devices). Cells are incubated at 37° C. for 1 hour to allow for dye uptake.
To test for antagonist activity, test compounds at a final concentration range between 0.32 nM-10 μM (diluted in assay buffer) are added to the assay wells and allowed to incubate for 10 minutes prior to stimulation with PK1. After incubation with test compounds the assay plate is placed in a FLIPR Tetra (Molecular Devices) and PK1 (diluted in assay buffer) is added at the determined EC80 concentration (final). Ligand-dependent changes in intracellular calcium levels are determined by measuring changes in fluorescence of the dye at […] following excitation at 485 nm.

T1 sequence (Q8TCW9 whole entry): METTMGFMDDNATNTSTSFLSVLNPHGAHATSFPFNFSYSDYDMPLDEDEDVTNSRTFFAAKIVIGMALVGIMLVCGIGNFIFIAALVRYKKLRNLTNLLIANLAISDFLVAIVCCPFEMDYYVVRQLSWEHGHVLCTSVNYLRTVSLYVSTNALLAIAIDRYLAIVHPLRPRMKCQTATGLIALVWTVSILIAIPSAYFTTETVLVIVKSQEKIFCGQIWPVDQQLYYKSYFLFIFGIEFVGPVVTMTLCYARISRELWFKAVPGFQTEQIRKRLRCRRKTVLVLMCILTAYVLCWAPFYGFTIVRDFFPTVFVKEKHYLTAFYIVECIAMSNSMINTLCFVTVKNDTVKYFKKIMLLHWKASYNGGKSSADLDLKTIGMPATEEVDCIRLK

| Compound | IC50 |
| --- | --- |
| COc1cc(Cl)cnc1OC1CCN(S(=O)(=O)c2c(C)nn(C)c2C)CC1 [Example 84, 5-Chloro-3-methoxy-2-((1-((1,3,5-trimethyl-1H-pyrazol-4-yl)sulfonyl)piperidin-4-yl)oxy)pyridine] | 720 nM |
| Cc1nn(C)c(C)c1S(=O)(=O)N1CCC(Oc2cccc(Cl)c2)CC1 [Example 6, 4-(3-Chlorophenoxy)-1-[(1,3,5-trimethyl-1H-pyrazol-4-yl)sulfonyl]piperidine] | 2200 nM |
| CCOC(c1ccc(Cl)cc1)C1CCN(S(=O)(=O)c2c(C)n[nH]c2C)CC1 (centres unmarked) [Example 104, 4-((4-Chlorophenyl)(ethoxy)methyl)-1-((3,5-dimethyl-1H-pyrazol-4-yl)sulfonyl)piperidine] | 720 nM |
| Cc1nn(C)c(Cl)c1S(=O)(=O)N1CCC(Cc2ccc(Cl)cc2)CC1 [Example 68, 1-((5-Chloro-1,3-dimethyl-1H-pyrazol-4-yl)sulfonyl)-4-(4chlorobenzyl)piperidine] | 2020 nM |
| Cc1nn(C)c(C)c1S(=O)(=O)N1CCC(Cc2ccc(Cl)c(F)c2)CC1 [Example 72, 4-(4-Chloro-3-fluorobenzyl)-1-((1,3,5-trimethyl-1H-pyrazol-4-yl)sulfonyl)piperidine] | 440 nM |
| Cc1nn(C)c(C)c1S(=O)(=O)N1CCC(Oc2ccc(C#N)cc2)CC1 [Example 7, 4-({1-[(1,3,5-Trimethyl-1H-pyrazol-4-yl)sulfonyl]piperidin-4-yl}oxy)benzonitrile] | 7300 nM |
| Cc1nn(C)c(C)c1S(=O)(=O)N1CCC(Oc2ccc(OC(F)(F)F)cc2)CC1 [Example 3, 4-[4-(Trifluoromethoxy)phenoxy]-1-[(1,3,5-trimethyl-1H-pyrazol-4-yl)sulfonyl]piperidine] | 1400 nM |
| COC(c1ccc(Cl)cc1)C1CCN(S(=O)(=O)c2c(C)n[nH]c2C)CC1 (single isomer, unassigned) [Example 98, 4-((4-Chlorophenyl)(methoxy)methyl)-1-((3,5-dimethyl-1H-pyrazol-4-yl)sulfonyl)piperidine] | 160 nM |
| COc1cc(Cl)ccc1OC1CCN(S(=O)(=O)c2c(C)n[nH]c2C)CC1 [Example 73, 4-(4-Chloro-2-methoxyphenoxy)-1-((3,5-dimethyl-1H-pyrazol-4-yl)sulfonyl)piperidine] | 200 nM |
| Cc1n[nH]c(C)c1S(=O)(=O)N1CCC(C(O)c2ccc(Cl)cc2)CC1 (centres unmarked) [Example 94] | 1740 nM |
| Cc1nn(C(F)F)c(C)c1S(=O)(=O)N1CCC(Oc2ccc(Cl)cc2Cl)CC1 [Example 29] | 1100 nM |
| Cc1n[nH]c(C)c1S(=O)(=O)N1CCC(Oc2ccc(Cl)cc2F)CC1 [Example 35, 4-(4-Chloro-2-fluorophenoxy)-1-(3,5-dimethyl-1H-pyrazole-4-sulfonyl)piperidine] | 1100 nM |
| Cc1nn(C)c(C)c1S(=O)(=O)N1CCC(Oc2ccc(Cl)cc2C(F)(F)F)CC1 [Example 39, 4-[4-Chloro-2-(trifluoromethyl)phenoxy]-1-(trimethyl-1H-pyrazole-4-sulfonyl)piperidine] | 210 nM |
| Cc1n[nH]c(C)c1S(=O)(=O)N1CCC(C(c2ccc(Cl)cc2)C(F)F)CC1 (centres unmarked) [Example 111, 4-(1-(4-Chlorophenyl)-2,2-difluoroethyl)-1-((3,5-dimethyl-1H-pyrazol-4-yl)sulfonyl)piperidine] | 340 nM |
| COc1ccc(OC2CCN(S(=O)(=O)c3c(C)nn(C)c3C)CC2)cc1 [Example 18, 4-(4-Methoxyphenoxy)-1-[(1,3,5-trimethyl-1H-pyrazol-4-yl)sulfonyl]piperidine] | 7000 nM |
| Cc1n[nH]c(C)c1S(=O)(=O)N1CCC(C(F)c2ccc(Cl)cc2)CC1 (single isomer, unassigned) [Example 107, 4-((4-Chlorophenyl)fluoromethyl)-1-((3,5-dimethyl-1H-pyrazol-4-yl)sulfonyl)piperidine] | 310 nM |
| Cc1nn(C)c(C)c1S(=O)(=O)N1CCC(Nc2ccc(Cl)c(Cl)c2)CC1 [Example 52, N-(3,4-Dichlorophenyl)-1-((1,3,5-trimethyl-1H-pyrazol-4-yl)sulfonyl)piperidin-4-amine] | 2700 nM |
| Cc1n[nH]c(C)c1S(=O)(=O)N1CCC(C(C)c2ccc(Cl)cc2)CC1 (centres unmarked) [Example 102, 4-(1-(4-Chlorophenyl)ethyl)-1-((3,5-dimethyl-1H-pyrazol-4-yl)sulfonyl)piperidine] | 470 nM |
| Cc1n[nH]c(C)c1S(=O)(=O)N1CCC(O)(Cc2ccc(Cl)cc2F)CC1 [Example 75, 4-(4-Chloro-2-fluorobenzyl)-1-((3,5-dimethyl-1H-pyrazol-4-yl)sulfonyl)piperidin-4-ol] | 6980 nM |

| Compound | IC50 |
| --- | --- |
| COc1c(F)cc(OC2CCN(S(=O)(=O)c3c(C)n[nH]c3C)CC2)cc1F [Example 42, 4-(3,5-Difluoro-4-methoxyphenoxy)-1-(3,5-dimethyl-1H-pyrazole-4-sulfonyl)piperidine] | 5900 nM |
| COc1cc(Cl)ccc1CC1(O)CCN(S(=O)(=O)c2c(C)n[nH]c2C)CC1 [Example 89, 4-(4-Chloro-2-methoxybenzyl)-1-((3,5-dimethyl-1H-pyrazol-4-yl)sulfonyl)piperidin-4-ol] | 410 nM |
| Cc1nn(C)c(C)c1S(=O)(=O)N1CCC(Cc2ccc(Cl)c(Cl)c2)CC1 [Example 56, 4-(3,4-Dichlorobenzyl)-1-((1,3,5-trimethyl-1H-pyrazol-4-yl)sulfonyl)piperidine] | 950 nM |
| Cc1nn(C)c(C)c1S(=O)(=O)N1CCC(Oc2ccc(Cl)cc2C#N)CC1 [Example 31, 5-Chloro-2-{[1-(trimethyl-1H-pyrazole-4-sulfonyl)piperidin-4-yl]oxy}benzonitrile] | 310 nM |
| Cc1nn(C)c(C)c1S(=O)(=O)N1CCC(C(=O)c2ccc(Cl)cc2)CC1 [Example 49, (4-Chlorophenyl)(1-((1,3,5-trimethyl-1H-pyrazol-4-yl)sulfonyl)piperidin-4-yl)methanone] | 1000 nM |
| Cc1nn(C)c(C)c1S(=O)(=O)N1CCC(Oc2ccc(Cl)cc2F)CC1 [Example 30, 4-(4-Chloro-2-fluorophenoxy)-1-(trimethyl-1H-pyrazole-4-sulfonyl)piperidine] | 510 nM |
| Cc1n[nH]c(C)c1S(=O)(=O)N1CCC(C(CO)c2ccc(Cl)cc2)CC1 (centres unmarked) [Example 100, 2-(4-Chlorophenyl)-2-(1-((3,5-dimethyl-1H-pyrazol-4-yl)sulfonyl)piperidin-4-yl)ethanol] | 9420 nM |
| Cc1nn(C)c(C)c1S(=O)(=O)N1CCC(Nc2ccc(Cl)cc2)CC1 [Example 51, N-(4-Chlorophenyl)-1-((1,3,5-trimethyl-1H-pyrazol-4-yl)sulfonyl)piperidin-4-amine] | 1500 nM |
| Cc1c(S(=O)(=O)N2CCC(Oc3ccc(Cl)cc3)CC2)c(C(F)(F)F)nn1C [Example 16, 4-(4-Chlorophenoxy)-1-{[1,5-dimethyl-3-(trifluoromethyl)-1H-pyrazol-4-yl]sulfonyl}piperidine] | 4600 nM |
| COc1cc(Cl)ccc1CC1CCN(S(=O)(=O)c2c(C)n[nH]c2C)CC1 [Example 78, 4-(4-Chloro-2-methoxybenzyl)-1-((3,5-dimethyl-1H-pyrazol-4-yl)sulfonyl)piperidine] | 70 nM |
| Cc1n[nH]c(C)c1S(=O)(=O)N1CCC(C(C)(O)c2ccc(Cl)cc2)CC1 (centres unmarked) [Example 101, 1-(4-Chlorophenyl)-1-(1-((3,5-dimethyl-1H-pyrazol-4-yl)sulfonyl)piperidin-4-yl)ethanol] | 2380 nM |
| Cc1nn(C)c(C)c1S(=O)(=O)N1CCC(Oc2ccc(Br)cc2F)CC1 [Example 14, 4-(4-Bromo-2-fluorophenoxy)-1-[(1,3,5-trimethyl-1H-pyrazol-4-yl)sulfonyl]piperidine] | 470 nM |
| COC(c1ccc(Cl)cc1)C1CCN(S(=O)(=O)c2c(C)nn(C)c2C)CC1 (centres unmarked) [Example 99, 4-((4-Chlorophenyl)(methoxy)methyl)-1-((1,3,5-trimethyl-1H-pyrazol-4-yl)sulfonyl)piperidine] | 60 nM |
| COc1cc(Cl)ccc1CC1(F)CCN(S(=O)(=O)c2c(C)n[nH]c2C)CC1 [Example 90, 4-(4-Chloro-2-methoxybenzyl)-1-((3,5-dimethyl-1H-pyrazol-4-yl)sulfonyl)-4-fluoropiperidine] | 170 nM |
| Cc1cnn(C)c1S(=O)(=O)N1CCC(Oc2ccc(Cl)cc2Cl)CC1 [Example 36, 4-(2,4-Dichlorophenoxy)-1-(1,4-dimethyl-1H-pyrazole-5-sulfonyl)piperidine] | 1100 nM |
| Cc1n[nH]c(C)c1S(=O)(=O)N1CCC(Oc2ccc3ccccc3c2)CC1 [Example 33, 1-[(3,5-Dimethyl-1H-pyrazol-4-yl)sulfonyl]-4-(naphthalen-2-yloxy)piperidine] | 440 nM |
| Cc1cccc(C)c1OC1CCN(S(=O)(=O)c2c(C)n[nH]c2C)CC1 [Example 38, 1-(3,5-Dimethyl-1H-pyrazole-4-sulfonyl)-4-(2,6-dimethylphenoxy)piperidine] | 3200 nM |
| Cc1n[nH]c(C)c1S(=O)(=O)N1CCC(O)(Cc2ccc(Cl)cc2)CC1 [Example 108, 4-(4-Chlorobenzyl)-1-((3,5-dimethyl-1H-pyrazol-4-yl)sulfonyl)piperidin-4-ol] | 1640 nM |
| COCC(c1ccc(Cl)cc1)C1CCN(S(=O)(=O)c2c(C)n[nH]c2C)CC1 (centres unmarked) [Example 109, 4-(1-(4-Chlorophenyl)-2-methoxyethyl)-1-((3,5-dimethyl-1H-pyrazol-4-yl)sulfonyl)piperidine] | 1860 nM |
